For assay [1], the system named is Nrf2(+/+) and (-/-) T cells. Description: CD25 expression in Nrf2(+/+) and (-/-) T cells. To be noted: 24 h. The class given is cell-based, mouse. How it is done:
C57BL/6J and Nrf2^-/- mice (Stock No:017009; […]: Jackson Labs) were bred and maintained in a closed breeding facility at The Scripps Research Institute and were 6-8 weeks old when used in experiments. All mice were used in accordance with guidelines from the Institutional Animal Care and Use Committee of The Scripps Research Institute. Spleens were harvested from female mice, perfused with collagenase, and incubated at 37° C. with 5% CO2 for 30 min. After this time, the spleens were homogenized. Cells that passed through a 100 μm cell strainer were collected and washed with RPMI. T cells were isolated from the splenocytes using the EasySepTM Mouse T cell Isolation Kit (19851; […]) according to manufacturer's instructions. 96-well plates were coated with anti-CD3 (1:200; BioXcell) and anti-CD28 (1:500; 302933; BioLegend) in PBS (100 μL/well) overnight at 4° C. The plates were then washed twice with PBS and to each well was added 500,000 primary T cells in 100 μL of RPMI supplemented with 10% FBS, glutamine, and Pen-Strep. Cells were then treated with 100 μL of media containing compound at the indicated concentrations (final well volume of 200 μL). Cells were left at 37° C. in a 5% CO2 incubator for the indicated periods of time and harvested by centrifugation (500 g, 8 min, 4° C.), followed by washing with PBS. […] Data was then analyzed with FlowJo software (Treestar Inc.). […]

The target in the next assay is SMAD2 C81 (Q15796) (Homo sapiens, UniProt Q15796). Description: Competitive isoTOP-ABPP in situ. The format is cell-based. The following applies: fragment 2 at 200 μM, MDA-MB-231 cells.
SMAD2 C81 (Q15796), sequence (Q15796 whole entry, the tested form may be a part): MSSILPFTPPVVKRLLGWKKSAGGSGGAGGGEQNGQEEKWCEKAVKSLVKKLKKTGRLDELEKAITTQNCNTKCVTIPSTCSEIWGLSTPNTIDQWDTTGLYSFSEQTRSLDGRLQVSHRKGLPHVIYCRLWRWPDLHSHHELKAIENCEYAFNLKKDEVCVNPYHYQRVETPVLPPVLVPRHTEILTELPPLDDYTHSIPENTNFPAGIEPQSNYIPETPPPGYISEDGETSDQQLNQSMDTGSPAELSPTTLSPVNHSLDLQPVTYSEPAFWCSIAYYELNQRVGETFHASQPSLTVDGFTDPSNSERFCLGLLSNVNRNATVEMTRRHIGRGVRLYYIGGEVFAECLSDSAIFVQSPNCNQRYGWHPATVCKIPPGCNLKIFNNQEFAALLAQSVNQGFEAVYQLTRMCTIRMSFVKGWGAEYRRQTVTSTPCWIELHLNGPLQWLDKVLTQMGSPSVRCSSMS
The target in another assay is THAP11 C48 (Q96EK4) (Homo sapiens, UniProt Q96EK4). Description: Competitive isoTOP-ABPP in situ. The format is cell-based. To be noted: fragment 2 at 200 μM, MDA-MB-231 cells.
THAP11 C48 (Q96EK4), sequence (Q96EK4 whole entry, the tested form may be a part): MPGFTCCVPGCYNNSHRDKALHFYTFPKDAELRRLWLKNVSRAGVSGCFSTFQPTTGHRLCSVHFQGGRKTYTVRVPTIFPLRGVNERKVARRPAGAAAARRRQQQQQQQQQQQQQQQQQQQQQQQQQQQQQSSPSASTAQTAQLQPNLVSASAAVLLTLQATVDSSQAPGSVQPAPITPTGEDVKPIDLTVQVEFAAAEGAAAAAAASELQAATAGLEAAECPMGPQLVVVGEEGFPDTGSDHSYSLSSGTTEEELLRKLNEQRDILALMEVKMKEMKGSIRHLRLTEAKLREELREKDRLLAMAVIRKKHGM
The target of the next assay is RNF214 C655 (Q8ND24) (Homo sapiens, UniProt Q8ND24). Put plainly: Competitive isoTOP-ABPP in situ. To be noted: fragment 2 at 200 μM, MDA-MB-231 cells. The format is cell-based.
RNF214 C655 (Q8ND24), sequence (Q8ND24 whole entry, the tested form may be a part): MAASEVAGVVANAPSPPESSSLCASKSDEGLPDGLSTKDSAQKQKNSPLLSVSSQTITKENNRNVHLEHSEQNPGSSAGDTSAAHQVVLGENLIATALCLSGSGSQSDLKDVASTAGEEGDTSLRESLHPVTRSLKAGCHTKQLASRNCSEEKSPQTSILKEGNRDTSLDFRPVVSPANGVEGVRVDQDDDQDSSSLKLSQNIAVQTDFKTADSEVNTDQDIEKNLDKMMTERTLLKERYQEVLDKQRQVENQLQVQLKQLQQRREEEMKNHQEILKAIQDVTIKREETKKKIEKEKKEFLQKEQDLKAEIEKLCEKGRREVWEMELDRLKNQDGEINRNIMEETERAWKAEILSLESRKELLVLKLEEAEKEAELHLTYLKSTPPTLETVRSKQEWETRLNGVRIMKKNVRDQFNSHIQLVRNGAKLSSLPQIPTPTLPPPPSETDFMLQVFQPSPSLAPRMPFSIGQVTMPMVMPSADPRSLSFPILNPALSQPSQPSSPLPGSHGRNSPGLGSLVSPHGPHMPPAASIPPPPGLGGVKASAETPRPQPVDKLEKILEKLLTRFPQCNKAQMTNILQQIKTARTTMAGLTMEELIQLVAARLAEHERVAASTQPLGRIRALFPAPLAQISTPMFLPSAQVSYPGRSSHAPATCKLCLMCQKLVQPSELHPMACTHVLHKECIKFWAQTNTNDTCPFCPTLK
The target of another assay is CYR61 C70 (O00622) (Homo sapiens, UniProt O00622). Description: Competitive isoTOP-ABPP, cell lysates. The class given is binding.
CYR61 C70 (O00622), sequence (O00622 25-381): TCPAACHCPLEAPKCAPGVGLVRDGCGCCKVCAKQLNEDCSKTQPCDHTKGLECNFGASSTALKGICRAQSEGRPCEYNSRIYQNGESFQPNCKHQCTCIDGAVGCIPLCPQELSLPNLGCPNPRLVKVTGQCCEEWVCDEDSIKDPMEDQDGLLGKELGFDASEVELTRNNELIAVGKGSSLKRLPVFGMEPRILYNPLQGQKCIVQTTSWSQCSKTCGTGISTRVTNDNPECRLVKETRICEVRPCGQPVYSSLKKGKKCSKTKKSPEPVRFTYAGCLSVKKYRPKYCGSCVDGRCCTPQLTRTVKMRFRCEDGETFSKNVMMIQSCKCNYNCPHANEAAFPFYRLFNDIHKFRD
A further assay deals with CLTC C870 (Q00610) (Homo sapiens, UniProt Q00610). Description: Competitive isoTOP-ABPP in situ. The class given is cell-based. The following applies: fragment 4 at 100 μM, MDA-MB-231 cells.
CLTC C870 (Q00610), sequence (Q00610 whole entry, the tested form may be a part): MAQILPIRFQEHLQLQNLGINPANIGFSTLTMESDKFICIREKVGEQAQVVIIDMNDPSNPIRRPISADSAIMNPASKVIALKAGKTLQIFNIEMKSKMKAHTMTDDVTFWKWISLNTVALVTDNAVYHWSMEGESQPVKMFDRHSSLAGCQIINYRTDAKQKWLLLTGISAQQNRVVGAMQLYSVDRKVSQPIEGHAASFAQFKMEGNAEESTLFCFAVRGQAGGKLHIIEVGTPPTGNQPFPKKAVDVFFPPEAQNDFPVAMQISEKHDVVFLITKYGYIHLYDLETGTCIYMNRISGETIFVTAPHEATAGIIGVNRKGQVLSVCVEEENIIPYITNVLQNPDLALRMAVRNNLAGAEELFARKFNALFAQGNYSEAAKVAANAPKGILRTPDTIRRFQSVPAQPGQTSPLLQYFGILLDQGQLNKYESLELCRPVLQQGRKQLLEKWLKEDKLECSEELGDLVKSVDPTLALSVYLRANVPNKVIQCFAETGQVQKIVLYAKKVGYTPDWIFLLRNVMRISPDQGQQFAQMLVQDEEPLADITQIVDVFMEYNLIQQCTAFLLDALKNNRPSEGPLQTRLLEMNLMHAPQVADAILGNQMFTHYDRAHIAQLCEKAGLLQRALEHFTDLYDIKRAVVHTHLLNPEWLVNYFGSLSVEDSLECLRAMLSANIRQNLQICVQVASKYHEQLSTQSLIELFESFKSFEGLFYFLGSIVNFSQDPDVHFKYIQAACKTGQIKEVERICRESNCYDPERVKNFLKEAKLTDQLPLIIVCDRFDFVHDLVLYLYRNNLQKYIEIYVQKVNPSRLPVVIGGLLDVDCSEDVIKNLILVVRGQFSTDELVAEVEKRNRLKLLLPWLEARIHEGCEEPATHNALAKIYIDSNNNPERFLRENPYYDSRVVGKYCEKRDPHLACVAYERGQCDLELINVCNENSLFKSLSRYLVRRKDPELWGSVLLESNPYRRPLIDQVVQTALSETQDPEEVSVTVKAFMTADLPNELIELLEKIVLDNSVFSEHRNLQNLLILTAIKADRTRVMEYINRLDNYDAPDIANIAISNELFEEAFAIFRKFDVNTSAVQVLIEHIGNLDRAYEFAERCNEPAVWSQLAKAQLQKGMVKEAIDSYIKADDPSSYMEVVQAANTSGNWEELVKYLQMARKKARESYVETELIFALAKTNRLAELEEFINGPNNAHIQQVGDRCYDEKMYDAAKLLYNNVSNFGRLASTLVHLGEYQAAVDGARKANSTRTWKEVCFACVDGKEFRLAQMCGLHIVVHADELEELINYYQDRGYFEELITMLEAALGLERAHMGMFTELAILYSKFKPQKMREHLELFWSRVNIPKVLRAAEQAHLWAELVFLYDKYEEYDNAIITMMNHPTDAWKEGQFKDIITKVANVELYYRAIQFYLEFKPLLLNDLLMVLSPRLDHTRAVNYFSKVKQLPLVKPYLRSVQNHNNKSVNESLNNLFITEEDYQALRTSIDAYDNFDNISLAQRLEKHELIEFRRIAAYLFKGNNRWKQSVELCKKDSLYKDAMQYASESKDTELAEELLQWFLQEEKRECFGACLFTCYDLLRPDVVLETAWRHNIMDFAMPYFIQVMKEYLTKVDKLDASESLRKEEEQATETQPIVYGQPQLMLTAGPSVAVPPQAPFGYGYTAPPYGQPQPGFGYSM
For the next assay, the target named is CDKN3 C39 (Q16667) (Homo sapiens, UniProt Q16667). Description: Competitive isoTOP-ABPP in situ. The format is cell-based. To be noted: fragment 4 at 100 μM, MDA-MB-231 cells.
CDKN3 C39 (Q16667), sequence (Q16667 whole entry, the tested form may be a part): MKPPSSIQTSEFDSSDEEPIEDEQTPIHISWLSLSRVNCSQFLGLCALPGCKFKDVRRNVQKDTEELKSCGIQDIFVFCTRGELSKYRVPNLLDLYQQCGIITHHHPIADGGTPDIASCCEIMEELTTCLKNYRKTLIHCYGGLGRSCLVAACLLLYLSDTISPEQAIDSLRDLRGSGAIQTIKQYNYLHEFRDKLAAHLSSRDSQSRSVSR

Results on 5 compounds are retold here after patent US10670605B2, “Cysteine reactive probes and uses thereof” (The Scripps Research Institute, priority 2015, dated 2020).

Structures can show the parent of a compound that is named as a salt.

With `COC(=O)/C=C/C(=O)OC` [DMF, dimethyl fumarate], the “sensitivity of activation of Nrf2(+/+) and (-/-) T cells” value in assay [1] is reported as “similarly sensitive”.

For the compound `COc1ccc2c(c1)CCCN2C(=O)CCl` [compound 2], the “isoTOP-ABPP reactivity profile (ratio) 2_200 μM_in-situ_231” value on SMAD2 C81 (Q15796) is reported as 20.0; on THAP11 C48 (Q96EK4), 7.9; at RNF214 C655 (Q8ND24), 6.5.

On to `O=C(CCl)Nc1cc(C(F)(F)F)cc(C(F)(F)F)c1` [compound 3], for which, on CYR61 C70 (O00622) (500 μM, in vitro, MDA-MB-231), the “R value (DMSO/fragment)” value worked out at 20.0.

As for `COc1ccc(C2CC(c3cccs3)=NN2C(=O)CCl)cc1` (centres unmarked) [compound 4], the figures for the “isoTOP-ABPP reactivity profile (ratio) 4_100 μM_in-situ_231” value at CLTC C870 (Q00610) and on CDKN3 C39 (Q16667) were 2.1 and 0.6, respectively.

On to `CC(C)CCOCCNC(=O)CCl` [compound 27], for which the “isoTOP-ABPP ratio (reactivity profile), O00622_C70” value on CYR61 C70 (O00622) (500 μm in-vitro ramos_231) is reported as 1.1.
